Assay results: PubChem BioAssay AID1996
Converted amounts (≈) assume the structure as drawn.

Details: buffer; pH 7.4; 200.0 µM

| SMILES | solubility kinetic [µg/mL] |
| --- | --- |
| CC(=O)Nc1nnc(SCC(=O)NC2CCCC2)s1 | > 45.1 |
| COc1ccc(CCNC(=O)C2CC(=O)N(c3ccc(C)cc3)C2)cc1 (centres undefined) | 2.5 (≈ 7.09 µM) |
| O=C(COC(=O)CNC(=O)c1cccc(OC(F)F)c1)NCc1ccc2c(c1)OCO2 | 22 (≈ 50.4 µM) |
| O=C(Nc1cccc([N+](=O)[O-])c1)N1CCN(c2ccccc2)CC1 | 3.6 (≈ 11 µM) |
| Cc1c(C)c2ccc(OCC(=O)N3CCOCC3)c(C)c2oc1=O | > 49.7 |
| Cn1c(=O)c2ccccc2n(Cc2cccc(F)c2)c1=O | 3.6 (≈ 12.7 µM) |
| COc1cc2[nH]c(C(=O)NCC3CCCO3)cc2c(OC)c1OC (centres undefined) | > 50.2 |
| O=C(Nc1cc(Cl)cc(Cl)c1)c1cccnc1 | 17.6 (≈ 65.9 µM) |
| CCc1cc2c(=O)n(-c3ccccc3)c(SCC(=O)O)nc2s1 | > 52 |
| COc1cccc(C(=O)NCCNC(=O)c2ccc(C)nc2)c1 | 45.7 (≈ 146 µM) |
| O=C(Nc1ccc2c(c1)OCCO2)C(=O)c1c[nH]c2ccccc12 | < 0.3 |
| CSCCC(=O)N1CCCC(N(C)CCc2ccccc2)C1 (centres undefined) | 41.7 (≈ 130 µM) |
| Cc1nc(-c2ccc(S(=O)(=O)N3CCOCC3)cc2)cs1 | 20.7 (≈ 63.8 µM) |
| CCOc1ccc(N2C(=O)CC(NCC#N)C2=O)cc1 (centres undefined) | > 41 |
| O=C(O/N=C1\CCS(=O)(=O)c2sccc21)c1ccc(F)cc1 | 1.2 (≈ 3.54 µM) |
| S=c1[nH]c(-c2ccccc2)cn1-c1ccccc1 | 14.9 (≈ 59 µM) |
| Cl.OCCNCCNCc1ccc(-c2ccccc2)cc1 | > 51.5 |
| COc1ccc(C(=O)NCC2(c3ccccc3)CCOCC2)cc1 | 47.1 (≈ 145 µM) |
| CC(=O)NC(CC(=O)OCC(=O)Nc1cc(S(=O)(=O)N2CCCCC2)ccc1C)c1ccccc1 (centres undefined) | > 75.2 |
| O=C(COC(=O)c1cc(=O)[nH]c2ccccc12)NCCc1ccccc1 | 21.1 (≈ 60.2 µM) |
| Cc1ccccc1OC(=O)c1cccnc1 | 28.4 (≈ 133 µM) |
| O=C1CSC(c2ccc(Cl)cc2)N1c1cccnc1 (centres undefined) | 42.1 (≈ 145 µM) |
| CC(=O)N1CC(=O)Nc2ccc(C)cc2C1c1ccccc1 (centres undefined) | > 44.2 |
| Cc1nn(C)c(C)c1NC(=O)c1ccc(Br)o1 | > 44.7 |

| SMILES | solubility kinetic [µg/mL] |
| --- | --- |
| COc1ccc(NC(=O)CON=CC(=O)Nc2ccc(C)cc2)c(OC)c1 | 3.8 (≈ 10.2 µM) |
| Cc1ccc2nc(-c3ccc4c(c3)OCCO4)cn2c1 | 35.1 (≈ 132 µM) |
| CCCCCCCCCCCCN1C(=O)CSC1c1cccnc1 (centres undefined) | < 0.4 |
| CC(OC(=O)CC1CCCCC1)C(=O)Nc1ccc(F)cc1 (centres undefined) | 1.2 (≈ 3.9 µM) |
| CC1CCC(NC(=S)NCCN(C)C)CC1 (centres undefined) | 25.6 (≈ 105 µM) |
| C/C(=N\NC(=O)c1ccn(C)n1)c1ccco1 | > 34.8 |
| CN(C)C(=S)Nc1ccc(Br)cc1Cl | 23.4 (≈ 79.7 µM) |
| CCOC(=O)C1=C(C)N=C2SCCC(=O)N2[C@@H]1c1cccs1 | 39.1 (≈ 116 µM) |
| CC(C)(C)NC(=O)C(=O)NNC(=O)c1ccco1 | > 38 |
| NC(=O)c1cc(S(=O)(=O)NCc2cccs2)cs1 | 43.4 (≈ 144 µM) |
| Cc1ccc(-n2c(SCC(=O)N3CCCCC3)nc(O)cc2=O)cc1 | 49.9 (≈ 139 µM) |
| CC1CCCCN1C(=O)CCn1c(=S)oc2ccccc21 (centres undefined) | 43.9 (≈ 144 µM) |
| CNc1ccc(Br)cc1C(O)c1ccccc1 (centres undefined) | 34.7 (≈ 119 µM) |
| Cc1ccc(NS(=O)(=O)c2ccc3[nH]c(=O)c(=O)[nH]c3c2)cc1Cl | 11.5 (≈ 31.4 µM) |
| O=C(CCCC(=O)c1ccccc1)NCCc1ccccc1 | > 44.3 |
| COC(=O)c1sccc1-n1cc(C#N)c(=O)n(C)c1=O | > 43.7 |
| Cn1c(Cl)cnc1C(O)(c1ccccc1)c1ccccc1 | 10.2 (≈ 34.1 µM) |
| Cc1cc(N2CCCC2)ccc1NC(=O)COc1ccc(Cl)cc1 | 4.4 (≈ 12.8 µM) |
| CCCc1ccc(OCc2ccc(C(=O)N3CCCC3)o2)cc1 | 5.9 (≈ 18.8 µM) |
| CC(C)N1CC(COc2ccccc2Cl)OC1=O (centres undefined) | > 40.5 |
| Cc1ccc(S(=O)(=O)N2CCN(C(=O)CCC(=O)Nc3ccc(F)cc3F)CC2)cc1 | > 67.7 |
| CC(=O)c1cccc(CN2CCN(C3CCCC3)C(CCO)C2)c1 (centres undefined) | > 49.6 |
| CNCc1c(OCc2ccccc2)ccc2ccccc12.Cl | 44.9 |
| Cc1nc2ccsc2c(=O)n1-c1ccccc1Cl | > 41.5 |

| SMILES | solubility kinetic [µg/mL] |
| --- | --- |
| O=C(Nc1ncccn1)c1ccc([N+](=O)[O-])cc1 | 36.5 (≈ 149 µM) |
| CN(C)C(=O)c1cc(C(=O)c2ccc(F)cc2Cl)c[nH]1 | > 44.2 |
| N#CC(=C=[N-])/C=C(\C(=O)c1ccccc1)[n+]1ccccc1 | > 41 |
| COc1ccccc1NC(=O)CCN1C(=O)c2ccccc2S1(=O)=O | > 54.1 |
| CCCc1nnc(SCC(=O)NC2CC2)n1C | > 38.2 |
| Cc1nc(-c2noc(-c3ccccc3Cl)n2)c(C(F)(F)F)o1 | 0.6 (≈ 1.82 µM) |
| Cc1cc(-c2ccccc2C(=O)NC2CCCCC2)on1 | 31.8 (≈ 112 µM) |
| CSCCC(NC(=O)c1ccco1)c1nc2ccccc2[nH]1 (centres undefined) | > 47.3 |
| CN(C(=O)c1ccccc1OCc1ccc(Cl)cc1)c1ccccc1 | 10.7 (≈ 30.4 µM) |
| Nc1ccc(C(=O)Nc2nccs2)cc1 | > 32.9 |
| C=CCSc1nc(C)c(CCCC)c(=O)[nH]1 | > 35.8 |
| S=C1NCN(CCc2ccccc2)CN1Cc1ccccc1 | 0.4 (≈ 1.28 µM) |
| COC(=O)CN1C(=O)N/C(=C/c2cc(OC)c(OC)cc2C)C1=O | 46.9 (≈ 140 µM) |
| O=C(NCc1ccncc1)c1cc2ccccc2nc1Cl | 43.4 (≈ 146 µM) |
| CCn1c(NCCCO)nc2c(c1=O)C(C)(CC)Cc1ccccc1-2 (centres undefined) | 47 (≈ 138 µM) |
| C=CCN1C(=O)C(=O)N(CC(=O)NCC(=O)Nc2ccc(F)c(F)c2F)C1=O | > 59.7 |
| CC(C)N1CCN(C2CSCCSC2)CC1CCO (centres undefined) | 42.7 (≈ 140 µM) |
| CCCCn1c(O)c(C(C)=NCc2cccnc2)c(=O)[nH]c1=O | > 47.5 |
| CCCCN(C(=O)CSc1ncnc2sccc12)c1c(N)n(Cc2ccccc2)c(=O)[nH]c1=O | 3.9 (≈ 7.85 µM) |
| CCc1ccc(NC(=O)COC(=O)/C=C/c2ccco2)cc1 | 4.8 (≈ 16 µM) |
| CCOCCOC(=O)NCCCCCCNC(=O)OCCOCC | 38.2 (≈ 110 µM) |
| Cc1cccc(NC(=O)CCS(=O)(=O)c2ccccc2)n1 | > 45.7 |
| Cc1cc(Nc2ccc(F)c(F)c2)nc(-c2ccccc2O)n1 | < 0.2 |
| CC1CC(C)CN(S(=O)(=O)c2cccc3nsnc23)C1 (centres undefined) | 8.4 (≈ 27 µM) |

| SMILES | solubility kinetic [µg/mL] |
| --- | --- |
| Cc1ccc(Cn2c(CCCO)nc3ccccc32)cc1 | 34.5 (≈ 123 µM) |
| CCCNC(=O)c1nn2cc(Br)cnc2c1Cl | > 47.6 |
| C=CCNc1nc(N)c([N+](=O)[O-])c(NC2CCCCC2)n1 | 0.7 (≈ 2.39 µM) |
| Cc1ccc(C(=O)NC(=S)N2CCN(C)CC2)cc1Br | 47.4 (≈ 133 µM) |
| Cc1ccc(C(=O)C(C)[n+]2cccc(C(N)=O)c2)cc1.[Br-] (centres undefined) | > 52.4 |
| COc1ccc(Nc2ncnc3c2c(C)c(C)n3CCO)cc1 | > 46.9 |
| COc1ccccc1Nc1ccc([N+](=O)[O-])cn1 | 8.1 (≈ 33 µM) |
| Cc1cc(NC(=O)c2cccnc2)ccc1Br | 40.2 (≈ 138 µM) |
| Cc1ccc(C)c(NC(=O)c2cnccn2)c1 | 23.9 (≈ 105 µM) |
| C=CCn1c(NCc2ccco2)nc2ccccc21 | > 38 |
| Cc1ccc(-n2nc3c(c2NC(=O)C(C)(C)C)CS(=O)(=O)C3)cc1 | > 52.1 |
| CC(=O)Nc1cccc(C(=O)OCC(=O)c2ccccc2Cl)c1 | 43 (≈ 130 µM) |
| Cc1ccc(N2CN(Cc3ccco3)CNC2=S)cc1 | 33.8 (≈ 118 µM) |
| CCN(CCO)C(=O)c1ccc2oc(Cc3ccc(Cl)cc3)nc2c1 | 41.5 (≈ 116 µM) |
| O=C(NNC(=O)c1ccncc1)Nc1cccc([N+](=O)[O-])c1 | > 45.2 |
| Cc1ccc(C)c(OCC(=O)NC2CCCCCC2)c1 | 3.8 (≈ 13.8 µM) |
| NS(=O)(=O)c1ccc(NNC(=O)c2ccc(Br)o2)c([N+](=O)[O-])c1 | > 60.8 |
| O=C(OCC(=O)N1CCc2ccccc21)[C@@H]1CC(O)CN1S(=O)(=O)c1ccc(Cl)cc1 (some centres undefined) | 50.4 (≈ 108 µM) |
| COc1ccc(NC(=O)N2CCCC(c3ccccc3)C2)cc1 (centres undefined) | 27.8 (≈ 89.6 µM) |
| CC(=O)c1ccc(N=C2SCCCN2C(=O)C2CCCCC2)cc1 | 42.2 (≈ 123 µM) |
| CCOC(=O)COc1nc(-c2ccco2)cc(-c2ccco2)c1C#N | 2.8 (≈ 8.28 µM) |
| COc1ccccc1C(=O)N(Cc1ccccc1)c1ccc(C)cc1 | 24.1 (≈ 72.7 µM) |
| CN1CCc2c(OCc3ccc(F)cc3)cccc2C1=O | 36.8 (≈ 129 µM) |
| Cc1cc(OCC(=O)Nc2ccncc2)ccc1[N+](=O)[O-] | 35.8 (≈ 125 µM) |

| SMILES | solubility kinetic [µg/mL] |
| --- | --- |
| COc1ccc(C(=O)N/C(=C\c2ccco2)C(=O)OCc2ccco2)cc1 | > 55.1 |
| O=C(NCc1cccs1)C1CC(=O)N(c2ccc(Cl)cc2)C1 (centres undefined) | 11.9 (≈ 35.5 µM) |
| O=CN1CCN(S(=O)(=O)c2ccc(Cl)c(C(=O)O)c2)CC1 | > 49.9 |
| Cn1ccnc1C(O)(c1ccccc1)c1nccn1C | > 40.2 |
| Cc1ccc(NC(=O)NC2CCCc3ccccc32)cc1 (centres undefined) | < 0.3 |
| CCCCCC#CCN1CCN(C23CC4CC(CC(C4)C2)C3)CC1 | 42.8 (≈ 130 µM) |
| COc1ccc(NC(=O)CCCc2ccccc2)c(OC)c1 | 36.4 (≈ 122 µM) |
| Cc1ccc(Cl)cc1NS(=O)(=O)N1CCOCC1 | > 43.6 |
| COc1cccc(OC)c1OCC(=O)Nc1ccc(S(=O)(=O)N2CCCC2)cc1 | 2.6 (≈ 6.18 µM) |
| O=C(O)C(Cc1c[nH]c2ccccc12)N1C(=O)C2C3c4ccccc4C(c4ccccc43)[C@@H]2C1=O (some centres undefined) | 37.1 (≈ 80.2 µM) |
| CCCN1CCN(C(=O)c2ccc3nc(CC)c(CC)nc3c2)CC1 | > 51.1 |
| CN=C(C)/C(C(=O)OC)=C(/O)c1c(F)cccc1F | 25.9 (≈ 96.2 µM) |
| Cn1c(=O)[nH]c(=O)c2c1nc1n2CCCN1Cc1ccccc1 | 8.1 (≈ 26 µM) |
| COc1ccc(N2CCN(CC(=O)Nc3nc(C)cs3)CC2)cc1 | 49.6 (≈ 143 µM) |
| O=C1C2CCCCN2C(=O)N1CCCCN1CCN(c2cccc(Cl)c2)CC1 (centres undefined) | 54.2 (≈ 134 µM) |
| CC(C)CC(=O)c1c[nH]c(C(=O)NCc2ccc(F)cc2)c1 | 0.7 (≈ 2.32 µM) |
| Cc1ccc(C)c(NC(=S)N2CCCC2)c1 | > 35.2 |
| CCCCOc1ccc(Cc2c(O)nc(SC)[nH]c2=O)cc1 | 20 (≈ 62.4 µM) |
| COc1ccc(C(=O)NCC(=O)N2CCCC(C)C2)cc1OC (centres undefined) | > 48.1 |
| CN(Cc1ccccc1)c1nc(N)nc(Cl)c1C=O | 26.4 (≈ 95.4 µM) |
| Cc1cc(C)c[n+](C(C)C(=O)c2ccc(Cl)cc2)c1.[Br-] (centres undefined) | > 53.2 |
| C=CCn1cnc2c(oc3ccccc32)c1=O | > 33.9 |
| CN(C)CCCn1c(N)c(C#N)c2nc3ccccc3nc21 | > 44.2 |
